Results from paper PMC7176929, “Meroterpenoids With Protein Tyrosine Phosphatase 1B Inhibitory Activities From the Fruiting Bodies of Ganoderma ahmadii” (Frontiers in Chemistry, 2020).

Target: T1, recombinant PTP1B catalytic domain (Homo sapiens, UniProt P18031)
T1 construct: made in house
T1 sequence (P18031 3-277 limits assumed): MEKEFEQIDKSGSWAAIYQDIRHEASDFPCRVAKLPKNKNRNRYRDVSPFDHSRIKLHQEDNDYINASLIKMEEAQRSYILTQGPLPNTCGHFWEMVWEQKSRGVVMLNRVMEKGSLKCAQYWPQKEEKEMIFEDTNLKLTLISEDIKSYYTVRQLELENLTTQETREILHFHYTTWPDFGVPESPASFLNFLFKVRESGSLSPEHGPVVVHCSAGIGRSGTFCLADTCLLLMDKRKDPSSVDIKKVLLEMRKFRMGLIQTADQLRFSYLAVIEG
Test: PTP1B inhibition assay (pNPP substrate)
Assay type: biochemical
Details: pNPP as substrate, absorbance at 405 nm, 37 °C; read-out: IC50, inhibitory activity against PTP1B
Experimental: The expressed and purified methods of recombinant PTP1B catalytic domain were the same as references (Liu et al., [2018]). The dephosphorylation of p-nitrophenyl phosphate (pNPP) generated the product pNP, which can be monitored at an absorbance for 405 nm. The compounds were pre-incubated with the enzyme at 37 °C for 5 min. […] After incubation at 37°C for 15 min, the reaction was […] using 0.5 M pNPP (12.5 μL). After initializing the enzymatic reaction, the plate was then read every 20 s for 15 min in the microplate reader at 405 nm. […] The equation used was: [(Ablank-Asample)/Ablank] × 100%. The IC50 values were determined by linear or non-linear regression analysis of the concentration-response data curve.

| IC50 [µM] | Structure (SMILES) |
| --- | --- |
| 17 | C/C(=C\CC/C(=C/CC/C(=C/C(=O)c1cc(O)ccc1O)C(=O)O)CO)COC(=O)/C=C/c1ccc(O)cc1 [Compound 1, Ganoduriporol F] |
| 20 | C/C(=C\CCC(CO)CCC/C(=C/C(=O)c1cc(O)ccc1O)C(=O)O)COC(=O)/C=C/c1ccc(O)c(O)c1 (stereo not shown) [Compound 2, Ganoduriporol G] |
| 19 | CC(=O)OCC(CC/C=C(/CC(=O)c1cc(O)ccc1O)C(=O)O)CC/C=C(\C)COC(=O)/C=C/c1ccc(O)cc1 (stereo not shown) [Compound 3, Ganoduriporol H] |
| 23 | CC(=O)OCC(CC/C=C(\C)COC(=O)/C=C/c1ccc(O)cc1)CCC/C(=C/C(=O)c1cc(O)ccc1O)C(=O)O (stereo not shown) [Compound 4, Ganoduriporol I] |
